Columns and labels:
Type in all cases: cell-based
[1] = Colony forming assay for compound 2 and 38 (treatment and 5 days recovery); conditions: treatment and recovery (5 days)
[2] = system: hippo signaling target proteins (TEAD4, Pan-TEADs, YAP, TAZ); assay: Immunoblotting of hippo signaling target proteins in A549 whole cell lysates; conditions: A549 cells, 24 hrs
Description: Method: A549 cells (at 60% confluency) either mock treated or treated with indicated doses of CPD10 and CPD13 for 24 hrs. Cells were washed with ice-cold 1×PBS and lysed in protein lysis buffer. Whole cell lysates were quantified by Pierce™ BCA Protein assay kit (Catalog number: 23225) and denatured in 4×LDS buffer (Thermo catalog number: NP0007) added with competing amount of DTT followed by boiling for 3 minutes. Samples were resolved in 8% of SDS-PAGE, transferred onto nitrocellulose membrane and immunoblotting was performed with indicated antibodies.
Result: To determine the CPD10 and CPD13 mediated expression of hippo signaling target proteins in A549 cells, whole cell lysates from mock treated and compounds treated cells were immunoblotted to determine the level of TEAD4, Pan-TEADs, YAP, TAZ proteins. […] Similar to CPD10, CPD13 downregulate YAP expression at 10 Um (B). To determine the level of other transcriptional targets, we tested the p53 protein in same sets of protein samples. […] GAPDH was used as loading control.

GFP-TEAD4 = target: T1, GFP-TEAD4 (Homo sapiens, UniProt Q15561); assay: TEAD4 localization imaging in U20S cells stably expressing GFP-TEAD4; conditions: 10 μM, 18 hrs
T1 construct: expressed in transfected cells
Description: Methods: U20S cells stably expressing GFP-TEAD4 were seeded at 50,000 cell densities onto glass cover slips in six well plates. Next day, cells were either DMSO treated or treated with indicated compounds at 10 μM concentrations. After 18 hrs of treatment cells were washed and fixed in 4% formaldehyde for 20 minutes. Blocking was done in 3% BSA dissolved in PBST for 1 hour. Cell were incubated with indicated antibodies for overnight in a cold room. Next day, after washing 3× in PBST samples were incubated with respective secondary antibodies for 45 minutes at room temperature. After washing nuclear staining was done with DAPI for 10 minutes. Coverslips were added onto glass slides with the help of mounting medium. After drying, cells were imaged at 63× objective and processed with ZEN x64 blue software.
Result: In DMSO treated control samples we observed very nuclear localized TEAD4 (green) signal, strongly imposed to the DAPI signal. Nuclear and cytoplasmic YAP and TAZ was observed either in DMSO or in compound treated cells.

[3] = system: TEADs transcriptional target genes; assay: RT PCR transcriptional profiling of TEADs target genes in A549 cells
Description: Method: A549 cells (at 60% confluency) either mock treated or treated with indicated doses of CPD 10 and CPD13 for 24 hrs. Cells were washed with ice-cold 1×PBS. RNA extraction was performed with Quick-RNA™ miniprep kit (Zymo Research, Cat. No. R1055), strictly according to manufacturer's instructions. Nanodrop quantified 2 μg of RNA samples were used for cDNA synthesis with cDNA Reverse Transcription Kit (Thermo Cat. No. 4368814) strictly according to the manufacturer's instructions. In RT PCR experiment, comparative target gene expression was performed by SYBR™ Green (Thermo Cat. No. 4309155) Master mix. Relative target gene expressions were compared and plotted on Y-Axis.
Result: Relative expression of YAP and TAZ in response to low dose of CPD10 (A) and CPD13 (B) treatment in A549 cells. c-MYC was included as non-transcriptional target of the TEADs. NFKB1 was included as its expression is reciprocal to the YAP/TAZ. Downstream effectors of the TEADs targets (CYR61, AXL, CTGF and ANKRD1) were determined in responses to 2.5, 5 and 10 μM of CPD10 (C) and CPD13 (D).
CPD10 and CPD13 Downregulate the TEADs transcriptional target genes: To determine CPD10 and CPD13 induced relative expression of TEADs target genes, A549 cells were treated with indicated doses for 24 hrs. Transcriptional profiling was performed with respective primer pairs. […] Further we tested the expression of one of the strong non hippo transcription factor, the C-Myc. As expected, c-MYC expression was not affected in response to CPD10 treatment (A). […] C-Myc expression was not affected. […] An Increase of NFKB1 expression is consistent with significant downregulation of YAP expression in response to CPD13 treatment (B). To determine the state of TEADs transcriptional target genes at higher concentrations, A549 cells were treated with indicated doses of compounds and analyzed for the expression of CYR61, AXL, CTGF and ANKRD1.

U20S cells = assay: Colony forming assay in U20S cells depleted of or overexpressing TEAD4
Description: (§1) In colony forming assay, indicated cells were plated at 5,000 cells density in 2 ml of DMEM medium. TEAD4 depletion was performed by reverse transfection with 20 nM of Dharmacon smart pool NTsiRNA and TEAD4 siRNA in 2.5 ul of lipofectamine mixed with 25% of OPTIMEM. After 18 hrs of transfection, cells were either DMSO treated or treated with indicated compounds at different doses. After 48 hrs of the treatment cells were recovered in a fresh medium for 4 days. At the end of the experiment cells were Glutaraldehyde fixed and stained in crystal violet solution for 2 hrs. After washing, plates were scanned for image processing.
In line with proliferation assay we performed colony forming assay in U20S cells either depleted or overexpressing TEAD4. Cells stably expressing GFP and GFP fused TEAD4 were also included in this assay.

YAP-TEAD binding = target: T2, YAP-TEAD binding (Homo sapiens, UniProt Q15561); assay: Endogenous TEAD4 immunoprecipitation in NCI-H226 mesothelioma cells; conditions: 24 hrs, indicated concentrations
T2 construct: Endogenous TEAD4 IP; endogenous in cells; host or cells: NCI-H226 mesothelioma cells
Description: Evaluation of CPD10 and CPD13 in NCI-H226 mesothelioma cell line: Actively growing cells were either DMSO added or treated with indicated concentrations of CPD10 and CPD13 for 24 hrs. Cells were collected in ice-cold PBS and pellets were lysed in IP Lysis Buffer (25 mM Tris-HCl pH 7.4, 150 mM NaCl, 1 mM EDTA, 1% NP-40 and 5% glycerol and competing amount of protease inhibitor). Samples were lysed by sonication, BCA assay was performed and equal concentration of protein were added with TEAD4 antibody (3 ul). After overnight incubation in cold room, samples were added with anti-rabbit magnetic beads to trap the TEAD and binding complex for 2 hrs. Samples were washed 3 times and bound fraction were collected with the help of magnetic stand. Samples were added with 4×LDS, competing amount of DTT, and boiled for 3 minutes. Whole cell lysate (Input) and IP samples were resolved in 8% SDS-PAGE gel and immunoblotted with indicated antibodies.
(§2) Relative quantification of immunoblot signals were quantified with IMAGE J software. Actively growing cells were added with indicated concentrations of CPD10 and CPD13 and cells were collected after 24 hrs. RNA was extracted and cDNA was synthesized. Indicated primer pairs were used for RT-PCR. Relative gene expression was determined by using GAPDH amplification.

[4] = system: TEAD transcriptional target genes; assay: RT-PCR profiling of YAP-TEAD transcriptional target genes in NCI-H226 cells; conditions: 24 hrs
Description: as §2

[5] = system: NCI-H226 mesothelioma cells; assay: Colony forming assay in NCI-H226 mesothelioma cells
Description: as §1
Colony forming assay was essentially performed as described in previous section.

[6] = system: CTGF and CYR61 transcripts; assay: RT-qPCR of Hippo-dependent gene transcripts in MCF10
Description: (§3) MGH-CP1 (positive control) and Cpd 13 were tested on MCF10 and A549.

[7] = system: CTGF and CYR61 transcripts; assay: RT-qPCR of Hippo-dependent gene transcripts in A549
Description: as §3

T1 sequence (Q15561 whole entry): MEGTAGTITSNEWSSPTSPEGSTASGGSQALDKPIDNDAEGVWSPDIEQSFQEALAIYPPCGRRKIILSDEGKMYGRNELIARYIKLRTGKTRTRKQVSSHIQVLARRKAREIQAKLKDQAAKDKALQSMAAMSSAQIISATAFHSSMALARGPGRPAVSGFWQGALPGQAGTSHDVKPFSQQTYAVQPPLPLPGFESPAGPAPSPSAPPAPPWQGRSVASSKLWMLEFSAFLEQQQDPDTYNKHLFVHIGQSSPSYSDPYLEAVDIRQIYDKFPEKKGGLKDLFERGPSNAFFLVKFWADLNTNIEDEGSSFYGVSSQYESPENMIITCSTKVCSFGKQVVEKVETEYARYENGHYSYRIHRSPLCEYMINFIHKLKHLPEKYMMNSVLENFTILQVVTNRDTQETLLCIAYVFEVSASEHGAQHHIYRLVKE
T2 sequence (Q15561 whole entry): as above

Row | SMILES | TEAD dependence of induced cell sensitivity (colony forming assay) [1] | YAP expression (immunoblot) ([2]; 10 Um) | wild type p53 expression (immunoblot) ([2]; same protein samples) | cytoplasmic localization of the TEAD4 protein (GFP-TEAD4) | nuclear TEAD4 presence (GFP-TEAD4) | ANKRD1 relative expression (RT PCR) ([3]; 24 hrs, 2.5, 5 and 10 μM) | AXL relative expression (RT PCR) ([3]; 24 hrs, 2.5, 5 and 10 μM) | CTGF relative expression (RT PCR) ([3]; 24 hrs, 2.5, 5 and 10 μM) | CYR61 relative expression (RT PCR) ([3]; 24 hrs, 2.5, 5 and 10 μM) | NFKB1 relative expression (RT PCR) ([3]; 24 hrs, low dose) | c-MYC relative expression (RT PCR) ([3]; 24 hrs, low dose) | YAP/TAZ relative expression (RT PCR) ([3]; 24 hrs, low dose (2.5 μM of CPD10)) | colony forming sensitivity (U20S cells; TEAD4 depleted cells, unlike control siRNA treated cells) | TEAD4 dependence of cellular sensitivity (siRNA depletion, colony forming) (U20S cells; U20S cells, control siRNA vs TEAD4 siRNA) | YAP-TEAD binding (TEAD4 IP, immunoblot) (YAP-TEAD binding) | TEAD transcriptional target genes expression (RT-PCR) [4] | colony forming sensitivity [5] | CTGF and CYR61 transcripts (RT-qPCR) [6] | CTGF and CYR61 transcripts (RT-qPCR) [7]
1 | C=CS(=O)(=O)CCC(=O)Nc1cc(-c2ccccc2)cnc1C [CPD2] | not TEAD dependent | – | – | – | – | – | – | – | – | – | – | – | – | – | – | – | – | – | –
2 | C=CS(=O)(=O)CCC(=O)Nc1nc(C2CCCCC2)c(C)s1 [CPD13] | – | downregulate | didn't resulted in change | induction of cytoplasmic localization | didn't diminish | further downregulated in a dose dependent manner | further downregulated in a dose dependent manner | further downregulated in a dose dependent manner | further downregulated in a dose dependent manner | Increase | not affected | significant reduction | less sensitive | TEAD4 dependent | disrupted to a great extent | repression | strongly sensitizes | dose dependent decrease | dose dependent decrease
3 | C=CS(=O)(=O)CCC(=O)Nc1cnn(-c2ccccc2)n1 [CPD38] | not TEAD dependent | – | – | – | – | – | – | – | – | – | – | – | – | – | – | – | – | – | –

Reference: patent publication US20250197355A1, “TEAD Targeting Compounds and Methods Thereof” (Agency for Science, Technology and Research, priority 2022, published 2025)
